Source: patent US20090118332A1, “Therapeutic Agents - 551” (AstraZeneca AB, priority 2006, published 2009)

Target: T1, human Fatty Acid Synthase (Homo sapiens, UniProt P49327)
T1 construct: made in house
Experiment: Human FAS enzyme assay (decrease in NADPH fluorescence)
Assay type: biochemical
Details: % inhibition at a concentration of 100 μmolar
Outline: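 In-house human FAS was preincubated with compound and NADPH for 15 min at room temperature in 0.1 M Tris pH 7.5 with EDTA, glutathione and BSA. Malonyl CoA and acetyl CoA (500 μM and 150 μM in the added mix) were then added for 60 min. IC50 came from time-zero-subtracted NADPH fluorescence (340/460 nm).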

T1 sequence (P49327 whole entry): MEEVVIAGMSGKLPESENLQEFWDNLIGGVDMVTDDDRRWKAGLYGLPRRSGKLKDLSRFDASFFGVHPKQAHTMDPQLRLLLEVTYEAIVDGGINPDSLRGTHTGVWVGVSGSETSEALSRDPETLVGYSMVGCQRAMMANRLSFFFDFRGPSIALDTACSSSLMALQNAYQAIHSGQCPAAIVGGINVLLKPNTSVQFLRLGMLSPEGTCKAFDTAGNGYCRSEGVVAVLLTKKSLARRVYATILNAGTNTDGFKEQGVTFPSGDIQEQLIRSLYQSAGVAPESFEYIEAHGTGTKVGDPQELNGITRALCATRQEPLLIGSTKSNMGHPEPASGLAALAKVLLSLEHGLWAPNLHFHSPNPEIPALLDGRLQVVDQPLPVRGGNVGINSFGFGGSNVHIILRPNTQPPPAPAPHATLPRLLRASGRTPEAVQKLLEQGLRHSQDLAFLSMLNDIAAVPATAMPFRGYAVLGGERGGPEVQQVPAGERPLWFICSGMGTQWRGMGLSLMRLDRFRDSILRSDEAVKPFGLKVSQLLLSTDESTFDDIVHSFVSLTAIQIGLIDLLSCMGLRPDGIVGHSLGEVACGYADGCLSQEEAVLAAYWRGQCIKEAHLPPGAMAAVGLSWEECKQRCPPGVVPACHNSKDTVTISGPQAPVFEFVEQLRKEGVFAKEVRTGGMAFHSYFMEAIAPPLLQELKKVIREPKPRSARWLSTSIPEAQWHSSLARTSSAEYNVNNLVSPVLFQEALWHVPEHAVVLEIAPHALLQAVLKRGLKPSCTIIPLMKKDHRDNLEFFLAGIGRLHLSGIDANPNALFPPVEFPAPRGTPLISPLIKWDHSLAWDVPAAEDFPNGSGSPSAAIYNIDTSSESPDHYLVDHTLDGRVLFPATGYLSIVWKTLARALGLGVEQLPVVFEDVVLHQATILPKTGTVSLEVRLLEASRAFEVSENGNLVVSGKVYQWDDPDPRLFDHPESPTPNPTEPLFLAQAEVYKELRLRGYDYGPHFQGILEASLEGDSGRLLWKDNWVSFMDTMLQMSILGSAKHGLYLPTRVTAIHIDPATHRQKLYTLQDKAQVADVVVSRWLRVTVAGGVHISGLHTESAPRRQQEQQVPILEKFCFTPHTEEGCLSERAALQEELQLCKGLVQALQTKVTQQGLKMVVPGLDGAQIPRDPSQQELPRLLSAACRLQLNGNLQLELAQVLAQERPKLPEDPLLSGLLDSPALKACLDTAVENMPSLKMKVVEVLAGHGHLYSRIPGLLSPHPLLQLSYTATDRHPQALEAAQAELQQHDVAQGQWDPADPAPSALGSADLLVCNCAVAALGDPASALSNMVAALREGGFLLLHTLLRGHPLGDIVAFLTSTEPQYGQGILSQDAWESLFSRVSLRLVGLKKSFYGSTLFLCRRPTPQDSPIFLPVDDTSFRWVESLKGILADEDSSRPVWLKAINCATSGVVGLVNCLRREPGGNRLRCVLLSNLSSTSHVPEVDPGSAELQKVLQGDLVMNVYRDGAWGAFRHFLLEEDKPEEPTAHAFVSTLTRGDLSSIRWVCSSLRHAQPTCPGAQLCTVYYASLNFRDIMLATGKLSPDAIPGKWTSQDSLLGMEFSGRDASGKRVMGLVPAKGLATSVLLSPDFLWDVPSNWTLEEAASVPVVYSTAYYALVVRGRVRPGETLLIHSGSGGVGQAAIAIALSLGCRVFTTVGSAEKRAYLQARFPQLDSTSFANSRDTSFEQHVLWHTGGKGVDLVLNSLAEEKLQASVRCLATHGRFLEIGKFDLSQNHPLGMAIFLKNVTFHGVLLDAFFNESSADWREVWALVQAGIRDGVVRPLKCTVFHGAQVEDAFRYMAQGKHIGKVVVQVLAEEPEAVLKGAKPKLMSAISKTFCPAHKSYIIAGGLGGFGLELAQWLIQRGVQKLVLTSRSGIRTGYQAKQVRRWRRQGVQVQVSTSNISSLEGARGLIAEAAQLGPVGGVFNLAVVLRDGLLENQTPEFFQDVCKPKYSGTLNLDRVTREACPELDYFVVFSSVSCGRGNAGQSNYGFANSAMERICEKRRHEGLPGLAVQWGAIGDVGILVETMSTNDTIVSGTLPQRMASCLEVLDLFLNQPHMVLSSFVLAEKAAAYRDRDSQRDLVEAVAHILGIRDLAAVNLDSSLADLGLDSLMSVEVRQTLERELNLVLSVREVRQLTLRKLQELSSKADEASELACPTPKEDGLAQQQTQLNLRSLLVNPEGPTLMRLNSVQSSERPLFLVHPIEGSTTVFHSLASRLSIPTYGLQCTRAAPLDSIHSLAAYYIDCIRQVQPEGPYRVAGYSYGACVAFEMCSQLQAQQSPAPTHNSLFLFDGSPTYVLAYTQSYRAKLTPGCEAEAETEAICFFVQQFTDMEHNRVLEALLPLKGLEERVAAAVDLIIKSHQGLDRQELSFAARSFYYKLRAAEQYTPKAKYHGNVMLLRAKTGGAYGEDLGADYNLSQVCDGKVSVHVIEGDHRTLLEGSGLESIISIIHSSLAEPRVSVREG

SMILES | inhibition at 100 µM
Cc1ccc(C(=O)N2CCC(c3ccc(C#N)cc3)CC2)cc1NC(=O)NCc1ccc(C#N)cc1 [Example 33, 3-[(4-cyanophenyl)methyl]-1-[5-[4-(4-cyanophenyl)piperidine-1-carbonyl]-2-methyl-phenyl]urea] | 91.8%
Cc1ccc(C(=O)N2CCC(c3ccc(C#N)cc3)CC2)cc1NC(=O)NCc1ccncc1 [Example 36, 1-[5-[4-(4-cyanophenyl)piperidine-1-carbonyl]-2-methyl-phenyl]-3-(pyridin-4-ylmethyl)urea] | 93.8%
Cc1ccc(NC(=O)N[C@@H](C)c2ccccc2)cc1C(=O)N1CCC(c2ccc(C#N)cc2)CC1 [Example 38, 3-[3-[4-(4-cyanophenyl)piperidine-1-carbonyl]-4-methyl-phenyl]-1-[(1S)-1-phenylethyl]urea] | 76.6%
Cc1ccc(C(=O)N2CCC(O)(c3ccc(Br)cc3)CC2)cc1NC(=O)NC(C)C [Example 39, 1-[5-[4-(4-bromophenyl)-4-hydroxy-piperidine-1-carbonyl]-2-methyl-phenyl]-3-propan-2-yl-urea] | 79.1%
Cc1ccc(C(=O)N2CCC(O)(c3ccc(Br)cc3)CC2)cc1NC(=O)NCc1ccccc1 [Example 40, 3-benzyl-1-[5-[4-(4-bromophenyl)-4-hydroxy-piperidine-1-carbonyl]-2-methyl-phenyl]urea] | 71.5%
C#CCNC(=O)Nc1cc(C(=O)N2CCC(c3ccc(C#N)cc3)CC2)ccc1C [Example 43, 1-[5-[4-(4-cyanophenyl)piperidine-1-carbonyl]-2-methyl-phenyl]-3-prop-2-ynyl-urea] | 88.3%
COc1cc(CNC(=O)Nc2cc(C(=O)N3CCC(c4ccc(C#N)cc4)CC3)ccc2C)cc(OC)c1OC [Example 44, 1-[5-[4-(4-cyanophenyl)piperidine-1-carbonyl]-2-methyl-phenyl]-3-[(3,4,5-trimethoxyphenyl)methyl]urea] | 87.9%
COC(=O)CCNC(=O)Nc1cc(C(=O)N2CCC(c3ccc(C#N)cc3)CC2)ccc1C [Example 45, methyl 3-[[5-[4-(4-cyanophenyl)piperidine-1-carbonyl]-2-methyl-phenyl]carbamoylamino]propanoate] | 91.8%
Cc1ccc(NC(=O)NCc2cccc(C#N)c2)cc1C(=O)N1CCC(c2ccc(C#N)cc2)CC1 [Example 47, 3-[(3-cyanophenyl)methyl]-1-[3-[4-(4-cyanophenyl)piperidine-1-carbonyl]-4-methyl-phenyl]urea] | 77.4%
Cc1ccc(NC(=O)N[C@H]2CC[C@@H](O)CC2)cc1C(=O)N1CCC(c2ccc(C#N)cc2)CC1 [Example 48, 1-[3-[4-(4-cyanophenyl)piperidine-1-carbonyl]-4-methyl-phenyl]-3-cis-(4-hydroxycyclohexyl)urea] | 93.7%
Cc1ccc(C(=O)N2CCC(O)(c3ccc(C#N)cc3)CC2)cc1NC(=O)NC(C)C [Example 50, 1-[5-[4-(4-cyanophenyl)-4-hydroxy-piperidine-1-carbonyl]-2-methyl-phenyl]-3-propan-2-yl-urea] | 81.2%
Cc1ccc(C(=O)N2CCC(c3ccc(C#N)cc3)CC2)cc1NC(=O)NCCCC(=O)OC(C)(C)C [Example 51, tert-butyl 4-[[5-[4-(4-cyanophenyl)piperidine-1-carbonyl]-2-methyl-phenyl]carbamoylamino]butanoate] | 101%
CCC(CC)NC(=O)Nc1cc(C(=O)N2CCC(c3ccc(C#N)cc3)CC2)ccc1C [Example 53, 3-[5-[4-(4-cyanophenyl)piperidine-1-carbonyl]-2-methyl-phenyl]-1-pentan-3-yl-urea] | 90.8%
Cc1cccc(CNC(=O)Nc2cc(C(=O)N3CCC(c4ccc(C#N)cc4)CC3)ccc2C)c1 [Example 54, 3-[5-[4-(4-cyanophenyl)piperidine-1-carbonyl]-2-methyl-phenyl]-1-[(3-methylphenyl)methyl]urea] | 92.2%
CC(=O)NCCNC(=O)Nc1cc(C(=O)N2CCC(c3ccc(C#N)cc3)CC2)ccc1C [Example 55, N-[2-[[5-[4-(4-cyanophenyl)piperidine-1-carbonyl]-2-methyl-phenyl]carbamoylamino]ethyl]acetamide] | 93.2%
Cc1ccc(C(=O)N2CCC(c3ccc(C#N)cc3)CC2)cc1NC(=O)NCc1ccc(F)c(F)c1 [Example 56, 1-[5-[4-(4-cyanophenyl)piperidine-1-carbonyl]-2-methyl-phenyl]-3-[(3,4-difluorophenyl)methyl]urea] | 105%
Cc1ccc(C(=O)N2CCC(c3ccc(C#N)cc3)CC2)cc1NC(=O)NCC(N)=O [Example 58, 2-[[5-[4-(4-cyanophenyl)piperidine-1-carbonyl]-2-methyl-phenyl]carbamoylamino]acetamide] | 89.9%
Cc1ccc(C(=O)N2CCC(c3ccc(C#N)cc3)CC2)cc1NC(=O)NC(C)(C)CNc1ccccc1 [Example 59, 3-(1-anilino-2-methyl-propan-2-yl)-1-[5-[4-(4-cyanophenyl)piperidine-1-carbonyl]-2-methyl-phenyl]urea] | 87.2%
Cc1ccc(C(=O)N2CCC(c3ccc(C#N)cc3)CC2)cc1NC(=O)NCCc1ccccn1 [Example 60, 1-[5-[4-(4-cyanophenyl)piperidine-1-carbonyl]-2-methyl-phenyl]-3-(2-pyridin-2-ylethyl)urea] | 95.3%
COc1ccccc1CCNC(=O)Nc1cc(C(=O)N2CCC(c3ccc(C#N)cc3)CC2)ccc1C [Example 61, 1-[5-[4-(4-cyanophenyl)piperidine-1-carbonyl]-2-methyl-phenyl]-3-[2-(2-methoxyphenyl)ethyl]urea] | 84.8%
Cc1ccc(C(=O)N2CCC(c3ccc(C#N)cc3)CC2)cc1NC(=O)NCCc1ccncc1 [Example 62, 1-[5-[4-(4-cyanophenyl)piperidine-1-carbonyl]-2-methyl-phenyl]-3-(2-pyridin-4-ylethyl)urea] | 101%
COc1ccc(CCNC(=O)Nc2cc(C(=O)N3CCC(c4ccc(C#N)cc4)CC3)ccc2C)cc1 [Example 64, 1-[5-[4-(4-cyanophenyl)piperidine-1-carbonyl]-2-methyl-phenyl]-3-[2-(4-methoxyphenyl)ethyl]urea] | 94%
Cc1ccc(C(=O)N2CCC(c3ccc(C#N)cc3)CC2)cc1NC(=O)NCCc1cccnc1 [Example 66, 1-[5-[4-(4-cyanophenyl)piperidine-1-carbonyl]-2-methyl-phenyl]-3-(2-pyridin-3-ylethyl)urea] | 91.5%
Cc1ccc(C(=O)N2CCC(c3ccc(C#N)cc3)CC2)cc1NC(=O)NCCc1c(C)noc1C [Example 67, 1-[5-[4-(4-cyanophenyl)piperidine-1-carbonyl]-2-methyl-phenyl]-3-[2-(3,5-dimethyl-1,2-oxazol-4-yl)ethyl]urea] | 96.9%

Further lines, results first:

inhibition at 100 µM | SMILES
86.5% | Cc1ccc(C(=O)N2CCC(c3ccc(C#N)cc3)CC2)cc1NC(=O)NCc1ccccc1F [Example 34, 1-[5-[4-(4-cyanophenyl)piperidine-1-carbonyl]-2-methyl-phenyl]-3-[(2-fluorophenyl)methyl]urea]
91.6% | Cc1ccc(C(=O)N2CCC(c3ccc(C#N)cc3)CC2)cc1NC(=O)NCc1cccnc1 [Example 35, 1-[5-[4-(4-cyanophenyl)piperidine-1-carbonyl]-2-methyl-phenyl]-3-(pyridin-3-ylmethyl)urea]
74.3% | Cc1ccc(NC(=O)N[C@H](C)c2ccccc2)cc1C(=O)N1CCC(c2ccc(C#N)cc2)CC1 [Example 37, 3-[3-[4-(4-cyanophenyl)piperidine-1-carbonyl]-4-methyl-phenyl]-1-[(1R)-1-phenylethyl]urea]
94.4% | Cc1ccc(C(=O)N2CCC(c3ccc(C#N)cc3)CC2)cc1NC(=O)NC1CCN(Cc2ccccc2)CC1 [Example 41, 3-(1-benzyl-4-piperidyl)-1-[5-[4-(4-cyanophenyl)piperidine-1-carbonyl]-2-methyl-phenyl]urea]
83.8% | Cc1ccc(C(=O)N2CCC(c3ccc(C#N)cc3)CC2)cc1NC(=O)NCC(C)C [Example 42, 1-[5-[4-(4-cyanophenyl)piperidine-1-carbonyl]-2-methyl-phenyl]-3-(2-methylpropyl)urea]
90.3% | CC(C)NC(=O)Nc1cccc(C(=O)N2CCC(c3ccc(C#N)cc3)CC2)c1 [Example 46, 3-[3-[4-(4-cyanophenyl)piperidine-1-carbonyl]phenyl]-1-propan-2-yl-urea]
98.1% | Cc1ccc(NC(=O)N[C@H]2CC[C@H](O)CC2)cc1C(=O)N1CCC(c2ccc(C#N)cc2)CC1 [Example 49, 1-[3-[4-(4-cyanophenyl)piperidine-1-carbonyl]-4-methyl-phenyl]-3-trans-(4-hydroxycyclohexyl)urea]
94.4% | Cc1ccc(C(=O)N2CCC(c3ccc(C#N)cc3)CC2)cc1NC(=O)NCc1ccccn1 [Example 52, 1-[5-[4-(4-cyanophenyl)piperidine-1-carbonyl]-2-methyl-phenyl]-3-(pyridin-2-ylmethyl)urea]
96.8% | Cc1ccc(C(=O)N2CCC(c3ccc(C#N)cc3)CC2)cc1NC(=O)NCCc1ccc(S(N)(=O)=O)cc1 [Example 57, 1-[5-[4-(4-cyanophenyl)piperidine-1-carbonyl]-2-methyl-phenyl]-3-[2-(4-sulfamoylphenyl)ethyl]urea]
93.4% | Cc1ccc(C(=O)N2CCC(c3ccc(C#N)cc3)CC2)cc1NC(=O)NCCc1cccs1 [Example 63, 1-[5-[4-(4-cyanophenyl)piperidine-1-carbonyl]-2-methyl-phenyl]-3-(2-thiophen-2-ylethyl)urea]
99.8% | COc1cccc(CCNC(=O)Nc2cc(C(=O)N3CCC(c4ccc(C#N)cc4)CC3)ccc2C)c1 [Example 65, 1-[5-[4-(4-cyanophenyl)piperidine-1-carbonyl]-2-methyl-phenyl]-3-[2-(3-methoxyphenyl)ethyl]urea]
